In data set [1] the target is T1, L(−)-carnitine dehydratase (Escherichia coli, UniProt P31572).
T1 construct: partly concentrated L(−)-carnitine dehydratase (without factor F showing any activity)
In words: L(−)-carnitine dehydratase activation test (formation of L(−)-carnitine from crotonobetaine). It counts as biochemical. As to conditions: 0.002 μmol cofactor, 10 min at 37° C. As for the experimental part: For the L(−)-carnitine dehydratase activation test according to the invention purified gamma-butyrobetainyl-coenzyme A is supplied (preferably 1-10 nmol) on potassium phosphate buffer (10 mM pH 7.5), which is added with partly concentrated L(−)-carnitine dehydratase (without factor F showing any activity) and the crotonobetaine solution to be metabolized (1M) and incubated at 37° C.
(§1) The L(−)-carnitine formed was subsequently tested with an optical test with the aid of carnitine acetyltransferase (according to BERGMEYER (1970)). A similar procedure was adopted in the racemization reaction test, in which a solution of D(+)-carnitine (1M) was added in the place of crotonobetaine. The L(−)-carnitine formed can be determined exactly by prior testing of the system with known solutions of L(−)-carnitine.
For the L(−)-carnitine dehydratase activation test according to the invention purified crotonobetainyl-coenzyme A is supplied (preferably 1-10 nmol) on potassium phosphate buffer (10 mM pH 7.5), which is added with partly concentrated L(−)-carnitine dehydratase (without factor F showing any activity) and the crotonobetaine solution to be metabolized (1M) and incubated at 37° C.
Formation of L(−)-carnitine from crotonobetaine by means of concentrated L(−)-carnitine dehydratase and gamma-butyrobetainyl-coenzyme A (BB-CoA) after 10 minutes' incubation at 37° C. on potassium phosphate buffer (10 mM, pH 7.5).
Formation of L(−)-carnitine from crotonobetaine by means of concentrated L(−)-carnitine dehydratase and crotonobetainyl-coenzyme A (CB-CoA) after 10 minutes' incubation at 37° C. on potassium phosphate buffer (10 mM, pH 7.5).

The nature of data set [2]: pH stability for 1 h. It counts as physicochemical. Conditions: pH range. How it is done:
(§2) The gamma-butyrobetainyl chloride thus obtained is suitable for the synthesis of gamma-butyrobetainyl-coenzyme A. Coenzyme A is first suspended in an iced mixture of 1M of sodium bicarbonate at pH 7.5-9.5 (preferably pH 8.5). To this is added a definite amount of gamma-butyrobetainyl chloride (preferably in excess) keeping the pH values under control. After 15-30 minutes the reaction is complete. The formation of gamma-butyrobetainyl-coenzyme A is checked by HPLC (Spherisorb, C18 column) and finally subjected to a further purification stage (ion-exchange chromatography on DOWEX 50). The purity is checked again by HPLC (Spherisorb, C18 column). The physicochemical properties were determined on the washed product (see following table).
as §2, with “crotonobetainyl” for “gamma-butyrobetainyl”, “crotonobetainyl-coenzyme” for “gamma-butyrobetainyl-coenzyme”, “The purity is checked again by HPLC (Spherisorb, C18 column).” left out

Data set [3] relates to system of racemization of carnitine. The experiment in a line: Racemization reaction test (formation of L(−)-carnitine from D(+)-carnitine). It counts as biochemical. Conditions: 0.002 μmol cofactor, 10 min at 37° C. How it is done:
as §1
Formation of L(−)-carnitine from D(+)-carnitine by means of a system of racemization of carnitine and gamma-butyrobetainyl-coenzyme A (BB-CoA) after 10 minutes' incubation at 37° C. on potassium phosphate buffer (10 mM, pH 7.5).
Formation of L(−)-carnitine from D(+)-carnitine via a system of racemization of carnitine and crotonobetainyl-coenzyme A (CB-CoA) after 10 minutes' incubation at 37° C. on potassium phosphate buffer (10 mM, pH 7.5).

A short description of data set [4]: Solubility. It counts as physicochemical. Conditions: solvent in which soluble. How it is done: as §2
as §2, with “crotonobetainyl” for “gamma-butyrobetainyl”, “crotonobetainyl-coenzyme” for “gamma-butyrobetainyl-coenzyme”, “The purity is checked again by HPLC (Spherisorb, C18 column).” left out

A short description of data set [5]: Temperature stability (1 h). It counts as physicochemical. As for the experimental part:
as §2
as §2, with “crotonobetainyl” for “gamma-butyrobetainyl”, “crotonobetainyl-coenzyme” for “gamma-butyrobetainyl-coenzyme”

The mark [6] stands for this setting: 0 μg L-carnitine dehydratase (no enzyme), 20 μmol crotonobetaine, pH 7.5.
Where [7] appears, read: 10 μg L-carnitine dehydratase, 0 μmol crotonobetaine (no substrate), pH 7.5.
The mark [8] stands for this setting: 10 μg L-carnitine dehydratase, 20 μmol crotonobetaine, potassium phosphate buffer 10 mM pH 7.5.
[9] abbreviates: 0 μg carnitine racemization system, 20 μmol substrate, pH 7.5.
[10] abbreviates: 30 μg carnitine racemization system, 0 μmol substrate, pH 7.5.
Setting [11] is: 30 μg carnitine racemization system, 20 μmol substrate (head: Crotonobetaine, text: D(+)-carnitine), potassium phosphate buffer 10 mM pH 7.5.

T1 sequence (P31572 whole entry): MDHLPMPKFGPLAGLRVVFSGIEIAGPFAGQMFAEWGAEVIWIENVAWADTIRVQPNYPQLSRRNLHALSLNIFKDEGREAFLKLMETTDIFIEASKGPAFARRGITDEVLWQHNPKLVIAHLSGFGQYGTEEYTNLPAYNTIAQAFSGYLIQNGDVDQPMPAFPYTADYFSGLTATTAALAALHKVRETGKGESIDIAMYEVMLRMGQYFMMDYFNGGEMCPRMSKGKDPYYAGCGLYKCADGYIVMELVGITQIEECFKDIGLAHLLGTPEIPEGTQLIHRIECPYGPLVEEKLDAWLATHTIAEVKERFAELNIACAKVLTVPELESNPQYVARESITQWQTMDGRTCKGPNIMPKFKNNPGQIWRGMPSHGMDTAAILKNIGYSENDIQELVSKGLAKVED

As to `CC(C)(COP(=O)(O)OP(=O)(O)OC[C@H]1O[C@@H](n2cnc3c(N)ncnc32)[C@H](O)[C@@H]1OP(=O)(O)O)[C@@H](O)C(=O)NCCC(=O)NCCSC(=O)CCC[N+](C)(C)C` [BB-CoA, gamma-butyrobetainyl-coenzyme A], the Carnitine synthesis is 0 µmol in data set [1] (setting [6]); 0 µmol in data set [1] (setting [7]); 0.18 µmol in data set [1] (setting [8]); 0 µmol in data set [3] (setting [9]); 0 µmol in data set [3] (setting [10]); 0.162 µmol in data set [3] (setting [11]). The “pH stability for 1 h” value in data set [2] is reported as 3-10. The Solubility result in data set [4] is reported as “water”. For the same compound, the “Temperature stability (1 h)” value in data set [5] (0° C. to 90° C.) was >90%: 0 °C to 90 °C; in data set [5] (−20° C.), 100%: −20 °C.
Take `CC(C)(COP(=O)(O)OP(=O)(O)OC[C@H]1O[C@@H](n2cnc3c(N)ncnc32)[C@H](O)[C@@H]1OP(=O)(O)O)[C@@H](O)C(=O)NCCC(=O)NCCSC(=O)/C=C/C[N+](C)(C)C` [CB-CoA, crotonobetainyl-coenzyme A]: the Carnitine synthesis is 0 µmol in data set [1] (setting [6]); 0 µmol in data set [1] (setting [7]); 0.271 µmol in data set [1] (setting [8]); 0 µmol in data set [3] (setting [9]); 0 µmol in data set [3] (setting [10]); 0.243 µmol in data set [3] (setting [11]). For the same compound, the “pH stability for 1 h” value in data set [2] is recorded as 2-10. For the same compound, the Solubility entry in data set [4] was “water”. Besides, the “Temperature stability (1 h)” value was 75%: 20 °C to 60 °C in data set [5] (20° C. to 60° C.) and 100%: −20 °C to 0 °C in data set [5] (−20° C. to 0° C.).

Values taken from patent US20020146787A1, “Coenzymes useful for the synthesis of L-carnitine” (Sigma-Tau Industrie Farmaceutiche Riunite S.p.A, priority 1998, published 2002).
